Data on two compounds can be found in patent publication US12297192B2, “Crystal form of pyrimidine sulfonamide compound and preparation method therefor” (WUXI BIOCITY BIOPHARMACEUTICS CO., LTD., priority 2019, dated 2025).

Values joined by “and” are separate entries in the source; they are usually repeats but may differ in a detail not shown here. Equal entries are not always repeated. Where a SMILES comes first, the peptide text is derived from it. [ ]: non-standard residue; d: D form.

The target of one test is T1, human ETA receptors (Homo sapiens, UniProt P25101).
T1 construct: endogenously expressed human ETA receptors in SK-N-MC cells; host or cells: SK-N-MC cells
T1 sequence (P25101 21-427): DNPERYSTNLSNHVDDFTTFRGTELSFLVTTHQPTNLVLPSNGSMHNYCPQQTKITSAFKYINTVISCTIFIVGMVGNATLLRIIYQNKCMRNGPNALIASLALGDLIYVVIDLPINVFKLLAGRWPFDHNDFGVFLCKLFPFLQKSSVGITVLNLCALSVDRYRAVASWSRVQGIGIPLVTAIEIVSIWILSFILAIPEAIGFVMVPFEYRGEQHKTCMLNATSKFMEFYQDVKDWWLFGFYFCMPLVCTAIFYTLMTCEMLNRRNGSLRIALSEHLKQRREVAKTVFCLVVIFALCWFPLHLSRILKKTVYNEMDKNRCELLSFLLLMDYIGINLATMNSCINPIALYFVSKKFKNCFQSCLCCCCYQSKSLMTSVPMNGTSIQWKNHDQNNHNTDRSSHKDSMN
The test can be described thus: In vitro antagonistic effect on human ETA receptors (Ca2+ fluorescence, SK-N-MC cells). The test is classed as cell-based. As to conditions: SK-N-MC cells, 1 nM endothelin-1. On the procedure: The antagonistic activity of the compounds on endogenously expressed human ETA receptors in SK-N-MC cells was assessed by measuring the effects of the compounds on changes in cytoplasmic Ca^2+ ion signaling induced by an agonist of human ETA receptor using a fluorescence assay. The functional activity of the ETA receptor antagonistic effect was tested at Eurofins-Cerep SA according to current standard operating procedures.
• 1. Cells were suspended in Dulbecco's modified Eagle medium solution (DMEM, Invitrogen) supplemented with 1% FCSd and then distributed at a density of 5×10^4 cells/well in 384 plates (100 μL/well). • 2. Hank's Balanced Salt Solution (HBSS, Invitrogen) supplemented with 20 mM 4-(2-hydroxyethyl) piperazine-1-ethanesulfonic acid (Hepes, Invitrogen) (pH 7.4) was mixed with the fluorescent probe (Fluo4 NW, Invitrogen) and added to each well. Equilibrated with the cells for 60 minutes at 37° C. and then for 15 min at 22° C. • 3. The assay plate was placed in a microplate reader (CellLux, PerkinElmer). DMSO solution of the test compound and the positive control in appropriate concentration or HBSS buffer was added. After 5 minutes, 1 nM endothelin-1 or HBSS buffer (basal control) was added. Then the change in fluorescence intensity was measured. The fluorescence intensity is in proportion to the Ca^2+ ion concentration of the free cytosol. • 4. […] The standard positive control was BQ-123 and several concentrations were tested in each experiment and the data was analyzed using Prism to produce a concentration-response curve to calculate the IC50 values of the compounds. • 6.

In another test the target is T2, human ETB receptors (Homo sapiens, UniProt P24530).
T2 construct: host or cells: CHO cells
T2 sequence (P24530 27-442): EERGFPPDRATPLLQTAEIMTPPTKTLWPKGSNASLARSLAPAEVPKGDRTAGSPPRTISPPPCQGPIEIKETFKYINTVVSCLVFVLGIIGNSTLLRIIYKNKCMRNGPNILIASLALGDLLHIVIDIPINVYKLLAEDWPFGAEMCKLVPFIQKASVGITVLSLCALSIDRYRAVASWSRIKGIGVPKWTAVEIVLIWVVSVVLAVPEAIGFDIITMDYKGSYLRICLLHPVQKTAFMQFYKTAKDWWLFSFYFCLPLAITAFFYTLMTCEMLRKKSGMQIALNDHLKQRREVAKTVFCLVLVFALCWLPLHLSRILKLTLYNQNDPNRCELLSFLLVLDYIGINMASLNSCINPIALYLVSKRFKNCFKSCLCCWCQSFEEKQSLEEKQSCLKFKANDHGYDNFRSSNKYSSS
The test can be described thus: In vitro antagonistic effect on human ETB receptors (Ca2+ fluorescence, transfected CHO cells). The test is classed as cell-based. To be noted: 0.3 nM endothelin-1. As for the experimental part: The antagonist activities of the compounds on human ETB receptors expressed in transfected CHO cells were assessed by measuring the effects of the compounds on changes in cytoplasmic Ca^2+ ion signaling induced by an agonist of human ETB receptor using a fluorescence assay. The functional activity of the ETB receptor antagonistic effect was tested at Eurofins-Cerep SA according to current standard operating procedures.
• 1. Cells were suspended in DMEM buffer (Invitrogen) and then distributed at a density of 3×10^4 cells/well in 384 plates (100 μL/well). • 2. HBSS buffer (Invitrogen) supplemented with 20 mM Hepes (Invitrogen) (pH 7.4) was mixed with the fluorescent probe (Fluo4 Direct, Invitrogen) and added to each well. Equilibrated with the cells for 60 minutes at 37° C. and then for 15 minutes at 22° C. • 3. The assay plate was placed in a microplate reader (CellLux, PerkinElmer). DMSO solution of the test compound and the positive control or HBSS buffer in appropriate concentration was added. […] Then the change in fluorescence intensity was measured. The fluorescence intensity is in proportion to the Ca^2+ ion concentration of the free cytosol. • 4. […] The standard positive control was BQ-788 and several concentrations were tested in each experiment and the data was analyzed using Prism to produce a concentration-response curve to calculate the IC50 values of the compounds. […]

Turning to `CC(C)C[C@@H]1NC(=O)[C@@H](C(C)C)NC(=O)[C@@H]2CCCN2C(=O)[C@@H](CC(=O)O)NC(=O)[C@@H](Cc2c[nH]c3ccccc23)NC1=O` [BQ-123, reference compound] (cyclo(L[dW][dD]P[dV])), the 50% inhibitory concentration (IC50) against human ETA receptors is 0.61 nM and 0.48 nM. With `CCCC[C@@H](NC(=O)[C@@H](Cc1cn(C(=O)OC)c2ccccc12)NC(=O)[C@H](CC(C)(C)C)NC(=O)N1[C@H](C)CCC[C@@H]1C)C(=O)O` [BQ-788], at human ETB receptors, the IC50 was 130 nM and 91 nM.

What is called IC50 is the concentration that inhibits the measured activity by half. A low value points to greater potency in that assay.
